Test results published in ChEMBL document CHEMBL4680108, “Ancistrolikokine E, a 5,8'-Coupled Naphthylisoquinoline Alkaloid, Eliminates the Tolerance of Cancer Cells to Nutrition Starvation by Inhibition of the Akt/mTOR/Autophagy Signaling Pathway” (2018).

Test system: PANC-1
Assay: Inhibition of autophagy in human PANC-1 cells cultured in nutrient-deprived medium assessed as inhibition of LC3-2 expression at […] after 6 hrs by Western blot analysis relative to control
Format: functional

## Cn1cnc(N)c2ncnc1-2 [3-METHYLADENINE]
  fold change (FC): 2
